# Laboratory results from patent US11857618B2 (priority 2020, dated 2024).
# System: phosphorylation of IRF3 in HeLa cells
# Assay type: cell-based
smiles,measurement,value
"Nc1nc(=O)c2ncn([C@@H]3O[C@@H]4COP(=O)(O)O[C@H]5[C@@H](O)[C@H](n6cnc7c(N)ncnc76)O[C@@H]5COP(=O)(O)O[C@@H]3[C@@H]4O)c2[nH]1 [cGAMP, 2′,3′-cGAMP (cyclic [G(2′,5′)pA(3′,5′)p])]",pIRF3 levels (band normalized to actin) as compared to untreated control,up to 3 fold
